We go through 52 substances from patent US20260008818A1, “CYCLIC PEPTIDE OR SALT THEREOF, AND USES THEREOF” (FUJIFILM Corporation, priority 2023, published 2026).

The subject of the assay is Recombinant Human FGFR1 alpha (IIIc) Fc Chimera Protein. In words: Binding affinity of enzymatically synthesized cyclic peptide to FGFR by ELISA. To be noted: luminescence signal at reaction concentration 10 nmol/L, SEQ ID NO: 39 standardized to 1, enzyme synthesis product. A digest of the protocol:
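Graded A–D from luminescence at 10 nmol/L peptide, expressed relative to SEQ ID NO: 39 after subtracting wells lacking receptor. Read-out used anti-Myc antibody (2 h, RT) with chemiluminescent substrate, following 3 h RT binding of peptide to immobilized FGFR1α(IIIc)-Fc, 5 ng per well.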
(In an ELISA, binding on a coated surface is turned into a signal by an enzyme label.)

Numbered stars: 1 amine (or outer) side, 2 acyl side, 3 side chain; on linkers, the order of the positions; unused ones are H or OH. Bridge positions count the residues as written; N and C are the ends. Ends that are not written are not given here. acetyl = K(acetyl): lysine side chain modified with a haloacetyl group whose halogen is replaced by the thiol of another residue, giving a thioether ring, O=C(C[*:1])[*:2]; COCH2 = acetyl group that carries the bridge

Consider “92 (HCTYERLQFHGHEAPFRVK(COCH2)V; thioether 2-19 via acetyl; not fully specified; printed as H-(C)-TYERLQFHGHEAPFRV-(K(acetyl))-V) [compound 92]”, for which the “Evaluation result of binding affinity to FGFR” value (“Evaluation result” below) is listed as “A (0.7 or more)”.

“107 (HCSYERLQFHNHEAPFRVK(COCH2)V; thioether 2-19 (inferred)) [compound 107]”: the “Evaluation result” value was “C (0.1 or more and less than 0.5)”.

Take “220 (HCSYERLQFHGHEAPFRVK(COCH2)D; thioether 2-19 (inferred)) [compound 220]”: the “Evaluation result” value was “C (0.1 or more and less than 0.5)”.

“221 (HCSYERLQFHGHEAPFRVK(COCH2)E; thioether 2-19 (inferred)) [compound 221]”: the “Evaluation result” value is given as “A (0.7 or more)”.

With “160 (HCSYERLQVHGHEAPFRVK(COCH2)V; thioether 2-19 (inferred)) [compound 160]”, the “Evaluation result” value was “C (0.1 or more and less than 0.5)”.

Take “178 (HCSYERLQFHGHLAPFRVK(COCH2)V; thioether 2-19 (inferred)) [compound 178]”: the “Evaluation result” value is given as “A (0.7 or more)”.

Consider “191 (HCSYERLQFHGHEAPFLVK(COCH2)V; thioether 2-19 via Ac) [compound 191]”, for which the “Evaluation result” value is listed as “A (0.7 or more)”.

On to “79 (DCSYERLQFHGHEAPFRVKV; not fully specified; Description of Artificial Sequence: Cyclic peptide) [compound 79]”, for which the “Evaluation result” value is on record as “A (0.7 or more)”.

Take “208 (HCSYERLQFHGHEAPFRTK(COCH2)V; thioether 2-19 via Ac; not fully specified) [compound 208]”: the “Evaluation result” value is “C (0.1 or more and less than 0.5)”.

“322 (HCTWERLIFLGHIAPFLVK(COCH2)R; thioether 2-19 (inferred)) [compound 322]”: the “Evaluation result” value was “C (0.1 or more and less than 0.5)”.

As to “70 (ICSYERLQFHGHEAPFRVK(COCH2)V; thioether 2-19 (inferred)) [compound 70]”, the “Evaluation result” value was “A (0.7 or more)”.

Regarding “145 (HCSYERLGFHGHEAPFRVK(COCH2)V; thioether 2-19 (inferred)) [compound 145]”, the “Evaluation result” value was “C (0.1 or more and less than 0.5)”.

Consider “157 (HCSYERLHFHGHEAPFRVK(COCH2)V; thioether 2-19 (inferred)) [compound 157]”, for which the “Evaluation result” value is listed as “A (0.7 or more)”.

Consider “153 (HCSYERLSFHGHEAPFRVK(COCH2)V; thioether 2-19 (inferred)) [compound 153]”, for which the “Evaluation result” value is “A (0.7 or more)”.

Take “252 (LCRVVLNGWIAPFWTIK(COCH2)E; thioether 2-17 (inferred)) [compound 252]”: the “Evaluation result” value is “B (0.5 or more and less than 0.7)”.

For “309 (HCSYERLQFHGHEAPFRVK(COCH2)M; thioether 2-19 (inferred)) [compound 309]”, the “Evaluation result” value was “A (0.7 or more)”.

Consider “295 (MCSYERLQFHGHEAPFRVK(COCH2)V; thioether 2-19 (inferred)) [compound 295]”, for which the “Evaluation result” value was “A (0.7 or more)”.

On to “299 (HCSYEMLQFHGHEAPFRVK(COCH2)V; thioether 2-19 (inferred)) [compound 299]”, for which the “Evaluation result” value is “C (0.1 or more and less than 0.5)”.

Take “55 (HCASYERLQFHGHEAPFRVK(COCH2)V; thioether 2-20 (inferred)) [compound 55]”: the “Evaluation result” value was “C (0.1 or more and less than 0.5)”.

Consider “43 (SCWQQLVWFQFEAPFLVK(COCH2)V; thioether 2-18 (inferred)) [compound 43]”, for which the “Evaluation result” value is “C (0.1 or more and less than 0.5)”.

For “265 (FCQFETLKFFGWEAPYLVK(COCH2)L; thioether 2-19 (inferred)) [compound 265]”, the “Evaluation result” value is “C (0.1 or more and less than 0.5)”.

With “335 (HCSYERLIFRGHIAPFWVK(COCH2)V; thioether 2-19 (inferred)) [compound 335]”, the “Evaluation result” value is “A (0.7 or more)”.

As for “315 (HCTYERLIFLGHIAPFWVK(COCH2)R; thioether 2-19 (inferred)) [compound 315]”, the “Evaluation result” value was “C (0.1 or more and less than 0.5)”.

Turning to “149 (HCSYERLFFHGHEAPFRVK(COCH2)V; thioether 2-19 (inferred)) [compound 149]”, the “Evaluation result” value is reported as “A (0.7 or more)”.

Turning to “310 (YCTWERLIFLGHIAPFWVK(COCH2)R; thioether 2-19 (inferred)) [compound 310]”, the “Evaluation result” value was “C (0.1 or more and less than 0.5)”.

Regarding “238 (HK(COCH2)TWERLIFLGHVAPFWVCR; thioether 2-19 (inferred)) [compound 238]”, the “Evaluation result” value is “B (0.5 or more and less than 0.7)”.

“71 (VCSYERLQFHGHEAPFRVK(COCH2)V; thioether 2-19 (inferred)) [compound 71]”: the “Evaluation result” value is “A (0.7 or more)”.

As to “151 (HCSYERLWFHGHEAPFRVK(COCH2)V; thioether 2-19 (inferred)) [compound 151]”, the “Evaluation result” value is “A (0.7 or more)”.

As for “125 (HCSYFRLQFHGHEAPFRVK(COCH2)V; thioether 2-19 (inferred)) [compound 125]”, the “Evaluation result” value was “C (0.1 or more and less than 0.5)”.

In the case of “163 (HCSYERLQFGGHEAPFRVK(COCH2)V; thioether 2-19 (inferred)) [compound 163]”, the “Evaluation result” value was “C (0.1 or more and less than 0.5)”.

For the substance “216 (HCSYERLQFHGHEAPFRVK(COCH2)N; thioether 2-19 via Ac; not fully specified) [compound 216]”, the “Evaluation result” value is “A (0.7 or more)”.

“105 (HCSYERLQFHFHEAPFRVK(COCH2)V; thioether 2-19 (inferred)) [compound 105]”: the “Evaluation result” value is “C (0.1 or more and less than 0.5)”.

Turning to “35 (CDRTLLYYRLSC; disulfide 1-12 (inferred)) [compound 35]”, the “Evaluation result” value is recorded as “D (less than 0.1)”.

Take “280 (PCWTRVVLLHHYAPFWAK(COCH2)I; thioether 2-18 (inferred)) [compound 280]”: the “Evaluation result” value is “C (0.1 or more and less than 0.5)”.

Take “321 (HCTWERLIFLGHVAPFWVK(COCH2)R; thioether 2-19 (inferred)) [compound 321]”: the “Evaluation result” value is “C (0.1 or more and less than 0.5)”.

For the substance “353 (PCVQQISPHPWGAPFWVVTSK(COCH2)Y; thioether 2-21) [compound 353]”, the “Evaluation result” value was “B (0.5 or more and less than 0.7)”.

“143 (HCSYERYQFHGHEAPFRVK(COCH2)V; thioether 2-19 (inferred)) [compound 143]”: the “Evaluation result” value was “B (0.5 or more and less than 0.7)”.

For the substance “213 (HCSYERLQFHGHEAPFRVK(COCH2)Y; thioether 2-19 via Ac; not fully specified) [compound 213]”, the “Evaluation result” value is “A (0.7 or more)”.

Turning to “112 (HCSYERLQFHGWEAPFRVK(COCH2)V; thioether 2-19 (inferred)) [compound 112]”, the “Evaluation result” value is “B (0.5 or more and less than 0.7)”.

For “214 (HCSYERLQFHGHEAPFRVK(COCH2)F; thioether 2-19 via Ac; not fully specified) [compound 214]”, the “Evaluation result” value was “B (0.5 or more and less than 0.7)”.

Turning to “51 (KCWQQLSFVGHIAPFVYK(COCH2)Y; thioether 2-18 (inferred)) [compound 51]”, the “Evaluation result” value was “B (0.5 or more and less than 0.7)”.

Regarding “326 (HCSYERLQFHGHIAPFWVK(COCH2)V; thioether 2-19 (inferred)) [compound 326]”, the “Evaluation result” value is given as “A (0.7 or more)”.

Consider “283 (KCSYERLQFHGHEAPFRVK(COCH2)V; thioether 2-19 (inferred)) [compound 283]”, for which the “Evaluation result” value was “B (0.5 or more and less than 0.7)”.

Take “348 (PCTGWTPLYFFGKRAPFLVNK(COCH2)A; thioether 2-21) [compound 348]”: the “Evaluation result” value is “C (0.1 or more and less than 0.5)”.

As for “124 (HCSYVRLQFHGHEAPFRVK(COCH2)V; thioether 2-19 (inferred)) [compound 124]”, the “Evaluation result” value is “B (0.5 or more and less than 0.7)”.

With “232 (HK(COCH2)TYERLIFLGHIAPFWVCR; thioether 2-19 (inferred)) [compound 232]”, the “Evaluation result” value was “B (0.5 or more and less than 0.7)”.

In the case of “253 (ICWTQLVLDGLYAPFLHK(COCH2)S; thioether 2-18 (inferred)) [compound 253]”, the “Evaluation result” value is “C (0.1 or more and less than 0.5)”.

For “147 (HCSYERLIFHGHEAPFRVK(COCH2)V; thioether 2-19 (inferred)) [compound 147]”, the “Evaluation result” value was “A (0.7 or more)”.

Consider “185 (HCSYERLQFHGHQAPFRVK(COCH2)V; thioether 2-19 via Ac) [compound 185]”, for which the “Evaluation result” value is reported as “A (0.7 or more)”.

On to “233 (HK(COCH2)TWERLVFLGHIAPFWVCR; thioether 2-19 (inferred)) [compound 233]”, for which the “Evaluation result” value was “B (0.5 or more and less than 0.7)”.

On to “298 (HCSYMRLQFHGHEAPFRVK(COCH2)V; thioether 2-19 (inferred)) [compound 298]”, for which the “Evaluation result” value is “B (0.5 or more and less than 0.7)”.

With “250 (QCLWAQLQLLTHLAPYIVK(COCH2)I; thioether 2-19 (inferred)) [compound 250]”, the “Evaluation result” value is “C (0.1 or more and less than 0.5)”.
